Like-named read-outs stand apart in the source and are kept apart here. Blank lines part the entries; values can stand above or below the compound they belong to.
Key:
[1] = test system: Bovine aortic endothelial cells (EC); assay: Determination of total glutathione in endothelial cell cultures; format: cell-based; details: for glutathione cellular level as a function of time: FIG. 2A; for EC50: Bos taurus, Endothelial cell, concentration giving half-maximal increase of glutathione level, read-out: HALF-maximal (effect of increased glutathione level); for Maximal effect (increased glutathione level): concentration giving maximal increase of glutathione level
Description: (§1) Bovine aortic endothelial cells (EC) were prepared from bovine aorta, cultured in DMEM supplemented with 5% fetal calf serum, 5% calf serum, 2 mM L-glutamine, 100 U/ml penicillin, 100 μg/ml streptomycin, 12.5 U/ml nystatin and FGF-2 (3 ng/ml; added every 48 hours). Cultures were incubated at 37° C. in a humidified 10% CO2 atmosphere and passages 12-18 were used for experiments.
(§2) EC cultures were incubated in the presence or absence of PDTC, NAC, ASSNAC and their combinations. At the end of the incubation, cells were washed, collected into 10 mM HCl and further lyzed by samples freezing (in liquid nitrogen) and thawing, 3 times. Cell protein was precipitated by addition of SSA (10%) followed by centrifugation at 10,000 g and supernatant was collected for glutathione determination. Total glutathione (GSH+GSSG) was determined by the Anderson recycling method. Briefly, a reaction mixture containing phosphate buffer, EDTA, DTNB, NADPH and glutathione reductase was added to 96-wells plates already containing 20 μl of the experimental samples or a GSSG standard. The plates were shaken and OD at 405 nm was monitored at 10 sec intervals for 130 sec in a micro-plate reader. To determine the GSSG level in the total cellular glutathione, 2-vinylpyridine was used to conjugate GSH and remove it from the mixture followed by total glutathione determination as described above. For normalization, the protein pellet of each sample was lyzed in 0.2 N NaOH and quantified by the Lowry method.

[2] = test system: glutamate-cysteine-ligase modifier subunit (GCLM); assay: Gene expression by real-time PCR in EC: GCLM; format: cell-based, bovine; details: 3 hours; NAC 2 mM, ASSNAC 0.2 mM
Text: (§3) Total RNA was collected by EZ-RNA 2 kit, treated with DNAse, converted to cDNA and assayed in triplicate by real-time quantitative PCR using a ABI Prism 7700 Sequence Detector System (Applied Biosystem, Foster City, Calif., USA), with Absolute SYBR Green ROX mix and analyzed (SDS 2.1 software). Primers: human glutamate-cysteine-ligase modifier subunit (GCLM)—Forward: 5′[…] GTAAC3′ • and Reverse: 5′[…]3′; • Human heme oxygenase-1 (HO-1)—Forward: 5′[…]3′ • and Reverse: 5′[…]3′; • bovine TGF β2—Forward: […] • and Reverse: […]; • bovine TNF-alfa—Forward: […] • and Reverse: […]; • bovine ICAM-1—Forward: […] • and Reverse: […]; • bovine VCAM-1 Forward: […] • and Reverse: […]. • Results were normalized based on the quantity of human β-actin. Primers—Forward: 5′CCTGGCACCCAGCACAAT3′ and Reverse: 5′[…]3′.
(§4) Increased expression of the phase II detoxifying enzymes by cells is indicative of increased protection against oxidative stress. In order to determine the effect of NAC and ASSNAC on gene expression in EC, cells were treated with NAC (2 mM) and ASSNAC (0.2 mM) for 3 hours following by extraction of mRNA. The expression of GCLM and HO-1 was then studied by Real-Time PCR. […] Without being bound by any theory or mechanism of action, the GCLM activity and the cystein level are considered to be the rate limiting step of the glutathione synthesis. […]

[3] = test system: heme oxygenase-1 (HO-1); assay: Gene expression by real-time PCR in EC: HO-1; format: cell-based, bovine; details: 3 hours; NAC 2 mM, ASSNAC 0.2 mM
Text: as §3, §4

[4] = test system: Bovine aortic endothelial cells (EC); details: from L. Horev-Azaria, Ph.D. Thesis, cited from earlier work
[5] = test system: TGF β2; assay: Gene expression by real-time PCR in EC: TGF β2; format: cell-based, bovine; details: 3 hours; ASSNAC 0.2 mM, LPS 1 μg/ml
Text: as §3
(§5) The effect of ASSNAC on gene expression was further shown to be specific. Endothelial cells (EC) were treated by ASSNAC (0.2 mM) and LPS (1 μg/ml) for 3 hours following by mRNA extraction. The expression of the inflammatory genes TGF β2, ICAM-1, VCAM-1 and TNFα was then studied by Real-Time PCR. […] Only TGF β2 was induced by ASSNAC and to a lesser extent by LPS. TNFα expression was not induced by either ASSNAC or LPS (Table 2B).

[6] = test system: VCAM-1; assay: Gene expression by real-time PCR in EC: VCAM-1; format: cell-based, bovine; details: 3 hours; ASSNAC 0.2 mM, LPS 1 μg/ml
Text: as §3, §5

[7] = test system: ICAM-1; assay: Gene expression by real-time PCR in EC: ICAM-1; format: cell-based, bovine; details: 3 hours; ASSNAC 0.2 mM, LPS 1 μg/ml
Text: as §3, §5

[8] = test system: TNFα; assay: Gene expression by real-time PCR in EC: TNFα; format: cell-based, bovine; details: 3 hours; ASSNAC 0.2 mM, LPS 1 μg/ml
Text: as §3, §5

[9] = test system: human neuroblastomas SH-SY5Y cell line; assay: Cellular glutathione level in SH-SY5Y cultures; format: cell-based
Description: In order to establish the potential effect of ASSNAC on glutathione up-regulation in the nerve system as a mean to protect against neurodegenerative diseases the effect of ASSNAC on the human neuroblastomas SH-SY5Y cell line was studied. The cells were cultured in DMEM supplemented with 10% fetal calf serum, 2 mM L-glutamine, 100 U/ml penicillin, 100 μg/ml streptomycin, 12.5 U/ml nystatin. Cultures were incubated at 37° C. in a humidified 10% CO2 atmosphere.
as §2
The effect was observable at a concentration of 0.05 mM with a 2.4-fold maximal increase in glutathione at a concentration of 0.2 mM. The results are presented as mean±SD (n=2). A significant increase in glutathione was determined by ANOVA analysis (p<0.005; FIG. 8A).
Confluent SH-SY5Y cultures were exposed to ASSNAC (0.2 mM) for various time periods. The cultures were then washed and the cellular level of total glutathione was determined. […] The results are presented as mean±SD (n=2). A significant increase in glutathione was determined by ANOVA analysis (p<0.005; FIG. 8B).

[10] = test system: Endothelial cells (EC); assay: Cytotoxicity test, BuOOH-stimulated cytotoxicity in endothelial cells (Neutral Red); format: cell-based, bovine; details: pre-incubation 18 hours; ASSNAC 0.2 mM vs NAC 1 mM and CSSA 0.2 mM; BuOOH 0.1 mM 3 hours
Description: as §1
Endothelial cells (EC; 10^4 cells/well) were grown till confluency in fibronectin-coated (5 μg/ml) 96 wells plates. Confluent EC were pre-incubated with ASSNAC 0.2 mM, CSSA 0.2 mM and NAC 1 mM for 18 hours in growth medium at 37° C. Subsequently, cells were washed with serum free DMEM medium and treated with […] ([…]) 0.1 mM for 3 hours. The number of viable cells was determined by Neutral Red (NR) staining method. After removing the culture medium, cells were incubated in NR working solution (1:100 in DCCM) for 2 hours at 37° C. […] Optical density of the dye was determined at 550 nm in an ELISA reader. The cell cytotoxicity was calculated by the following formula: Cytotoxicity (%)=[1−NR uptake in treated wells/NR uptake in control wells]×100 The control (untreated wells) were determined as 0% cytotoxity, the average of triplicates of each treatment is shown.

[11] = test system: human neuroblastomas SH-SY5Y cell line; assay: Protection of SH-SY5Y cultures against tBuOOH cytotoxicity (neutral red); details: then tBuOOH 1 mM 3 hours
[12] = 24 hours, increasing concentrations

Compound: C=CCS[S+]([O-])CC=C (centres unmarked) [Allicin]
Maximal Fold Increase (glutathione level) [4]: 8
Maximal effect (increased glutathione level) [4]: 20 µM
EC50 ([4]; read-out: HALF-maximal (effect of increased glutathione level)): 7 µM

Compound: S=C(S)N1CCCC1 [PDTC, Pyrrolidine dithiocarbamate]
reduced glutathione (GSH) versus PDTC concentration ([1]; 24 hours, increasing concentrations, FIG. 6A): concentration dependent increase
concentration of GSH versus time ([1]; PDTC 0.1 mM, increasing time intervals, FIG. 6B): linear increase

Compound: lipopolysacharide [LPS]
TGF β2 gene expression [5]: 5.7
VCAM-1 gene expression [6]: 104.7
ICAM-1 gene expression [7]: 19.52
TNFα gene expression [8]: 0.71

Now from value to compound, other results behind:

EC50 [1]: 70 µM
Compound: C=CCSSC[C@H](N)C(=O)O [CSSA, S-allylmercaptocysteine]
Maximal Fold Increase (glutathione level) [1]: 2
speed of glutathione response ([1]; 0.2 mM, CSSA compared with ASSNAC): faster response
glutathione cellular level as a function of time ([1]; 0.2 mM): significant increase in glutathione cellular level
distribution of glutathione up-regulation between GSH and GSSG ([1]; 0.3 mM CSSA, FIG. 4): increase in GSH but not in GSSG level
GSSG level as share of the total cellular glutathione level ([1]; 0.3 mM CSSA, different time intervals): lower than 2%
Maximal effect (increased glutathione level) [1]: 200 µM

EC50 [1]: 320 µM
Compound: CC(=O)N[C@@H](CS)C(=O)O [NAC, N-acetylcysteine]
GCLM gene expression [2]: 1.0 ± 0.2 (n = 3)
Maximal Fold Increase (glutathione level) [1]: 2.5
concentration of maximal effect on glutathione level [1, 12]: 2 mM
time to maximal increase in glutathione level ([1]; NAC 2 mM): 6 h
Maximal effect (increased glutathione level) [1]: 500 µM
HO-1 gene expression [3]: 0.9 ± 0.1 (n = 3)

EC50 [1]: 60 µM
Compound: C=CCSSC[C@H](NC(C)=O)C(=O)O [ASSNAC, S-allylmercapto-N-acetylcysteine]
GCLM gene expression [2]: 2.3 ± 1.0 (n = 4)
Maximal Fold Increase (glutathione level) [1]: 4
glutathione level after 24 hours, ASSNAC in comparison to CSSA ([1]; 0.2 mM, 24 hours): higher glutathione level
glutathione cellular level as a function of time ([1]; 0.2 mM): significant increase in glutathione cellular level
concentration at which up-regulation of glutathione level starts [1, 12]: 0.05 mM
concentration of maximal effect on glutathione level [1, 12]: 0.2 mM
Maximal effect (increased glutathione level) [1]: 200 µM
signs of cytotoxic effect ([1]; up to a concentration of 2.0 mM, 24 hours): without any signs of cytotoxic effect
TGF β2 gene expression [5]: 2.14
HO-1 gene expression [3]: 8.2 ± 4.2 (n = 4)
VCAM-1 gene expression [6]: 0.94
ICAM-1 gene expression [7]: 1.03
TNFα gene expression [8]: 0.77
concentration at which increase in glutathione is observable ([9]; 24 hours): 0.05 mM
concentration of maximal increase in glutathione ([9]; 24 hours): 0.2 mM
maximal increase in glutathione ([9]; 24 hours, at 0.2 mM): 2.4 fold
time of maximal increase in glutathione ([9]; ASSNAC 0.2 mM): 24 h
protection of cells from BuOOH oxidation stress [10]: better protection
cytotoxicity after ASSNAC pretreatment ([11]; ASSNAC 0.2 mM 24 hours): 25%
concentration at which decrease in cytotoxicity starts ([11]; pretreatment 24 hours): 25 µM
